Common to all, as to format: cell-based
Assay [1] relates to A2780/Adr (doxorubicin-resistant ovarian cancer). Nature of the assay: FMCA, A2780/Adr. The note with it: A2780/Adr doxorubicin-resistant ovarian cancer cells. From the text:
(§1) The Fluorometric Microculture Cytotoxicity Assay, FMCA (Larsson, R., et al.; Anticancer Res, 1989, 9, 1111-1119), is a three day non-clonogenic microplate-based cell viability assay used for measurement of the cytotoxic and/or cytostatic effect of compounds in vitro (Lindhagen, E. et al.; Nat. Protoc., 2008, 3, 1364-1369). FMCA represents a valuable method to measure cytotoxicity in a number of cell types, both cell lines and primary cells from patients (Larsson, R., et al.; Int. J. Cancer, 1992, 50, 177-185; Fridborg, H., et al.; Eur. J. Cancer, 1999. 35, 424-432; Dhar, S., et al.; Br. J. Cancer, 1996, 74, 888-896).
(§2) FMCA is based on the principle that fluorescein diacetate (FDA) is converted to the fluorescent probe fluorescein by esterases in the plasma membranes of living cells. For experiments, 96 or 384-well microplates are prepared with compounds and stored at −70° C. until use. Cells are then seeded into the drug-prepared plates and placed in an incubator for 72 h. On the last day of incubation, the plates are washed and a buffer containing FDA is added and incubated with the cells for 45 minutes. Finally the fluorescence per well is measured in a fluorometer and a Survival Index % (SI) for each compound-treated well is calculated with the equation: Compound-treated cells minus blank divided by control cells minus blank. A high SI-value indicates a large percentage of living cells and vice versa.
(§3) For dose-response experiments, 384-well plates were prepared as follows:
(§4) Compounds of the invention as well comparative kinase inhibitors sorafenib sunitinib, dasatinib, pazopanib and a reference compound disclosed in WO 2009/071535 (compound #107) were diluted with PBS to a concentration ten-times higher than the desired starting concentration. Then, a Biomek 2000 liquid handling system was employed to serially dilute the compounds in a deep-well 384-well plate. From this plate, assay plates containing 5 μl compound per well were prepared with the Biomek 2000. Certain compounds precipitated when diluted with PBS, and these compounds were therefore prepared in a 96-well plate manually as described above using culture medium RPMI 1640 instead of PBS.
(§5) The compounds were also tested at five concentrations, with five times serial dilution on the following cell types: CCRF-CEM, hTERT-RPE1 (normal retinal epithelial cells), hRPTEpiC (normal renal cells), and peripheral blood mononuclear cells (PBMC). Each experiment was performed three times, except for PBMC and hRPTEpiC, which were performed twice. SI-values were calculated, graphs were plotted using GraphPadPrism 5.0 (GraphPad Software Inc. La Jolla, Calif.) and IC50-values for each cell type and compound were determined from the curves.
(§6) The compounds of the invention were also tested on further cancer cell lines related to breast cancer (MDA-MB-231; see e.g. Cailleau, R., et al.; J. Natl. Cancer Inst., 1974, 53, 661-674), teniposide-resistant leukemia (CEM/VM1 see e.g. Danks, M., et al.; Cancer Res., 1987, 47, 1297-1301), leukemia (HL-60; see e.g. Collins, S., et al.; Nature, 1977, 270, 347-349), doxorubicin-resistant lung cancer (H69AR; see e.g. Mirski, S., et al.; Cancer Res., 1987, 47, 2594-2598), myeloma (RPMI 8226; see e.g. Matsuoka, Y., et al.; Proc. Soc. Exp. Biol. Med., 1967, 125, 1246-1250), doxorubicin-resistant myeloma (8226/Dox40; see e.g. Dalton, W., et al.; Blood, 1989, 15, 747-752), lymphoma (U-937, see e.g. Sundström, C., et al.; Int. J. Cancer, 1976, 17, 565-577), vincristin-resistant lymphoma (U-937-vcr; see e.g. Botling, J., et al.; Int. J. Cancer, 1994, 58, 269-274), ovarian cancer (A2780; see e.g. Hamilton, T., et al.; Semin. Oncol., 1984, 11, 285-298), doxorubicin-resistant ovarian cancer (A2780/Adr), cisplatin-resistant ovarian cancer (A2780/Cis; see e.g. Behrens, B., et al. Cancer Res. 1987, 47, 414-418), pancreatic cancer (PANC-1, BxPC-3, and MIA PaCa-2; see e.g. Lieber, M., et al.; Int. J. Cancer, 1975, 15, 741-747; Loor, R., et al.; Clin. Lab. […]

The test system of a further assay is PC-3 (prostate cancer). In words: FMCA, PC-3. The settings on record: PC-3 prostate cancer cells.
From the text: as §1, §2, §3, §4, §5
(§7) The compounds of the invention were also tested on further cancer cell lines related to breast cancer (MDA-MB-231; see e.g. Cailleau, R., et al.; J. Natl. Cancer Inst., 1974, 53, 661-674), teniposide-resistant leukemia (CEM/VM1 see e.g. Danks, M., et al.; Cancer Res., 1987, 47, 1297-1301), leukemia (HL-60; see e.g. Collins, S., et al.; Nature, 1977, 270, 347-349), doxorubicin-resistant lung cancer (H69AR; see e.g. Mirski, S., et al.; Cancer Res., 1987, 47, 2594-2598), myeloma (RPMI 8226; see e.g. Matsuoka, Y., et al.; Proc. Soc. Exp. Biol. Med., 1967, 125, 1246-1250), doxorubicin-resistant myeloma (8226/Dox40; see e.g. Dalton, W., et al.; Blood, 1989, 15, 747-752), lymphoma (U-937, see e.g. Sundström, C., et al.; Int. […]

Assay [2] has as its system CEM/VM1 (teniposide-resistant leukemia). Nature of the assay: FMCA, CEM/VM1. The note with it: Homo sapiens, CEM/VM1 teniposide-resistant leukemia cells.
From the text: as §1, §2, §3, §4, §5, §6

A further assay deals with U-937 (lymphoma). In words: FMCA, U-937. The settings on record: Homo sapiens, U-937 lymphoma cells.
From the text: as §1, §2, §3, §4, §5, §6

A further assay deals with RPMI 8226 (myeloma). Nature of the assay: FMCA, RPMI 8226. The settings on record: Homo sapiens, RPMI 8226 myeloma cells.
From the text: as §1, §2, §3, §4, §5, §6

For another assay, the system named is HL-60 (leukemia). Nature of the assay: FMCA, HL-60. The settings on record: Homo sapiens, HL-60 leukemia cells.
From the text: as §1, §2, §3, §4, §5, §7

The subject of assay [3] is 8226/Dox40 (doxorubicin-resistant myeloma). Nature of the assay: FMCA, 8226/Dox40. The note with it: 8226/Dox40 doxorubicin-resistant myeloma cells.
From the text: as §1, §2, §3, §4, §5, §6

The subject of assay [4] is H69AR (doxorubicin-resistant lung cancer). In words: FMCA, H69AR. The note with it: Homo sapiens, H69AR doxorubicin-resistant lung cancer cells.
From the text: as §1, §2, §3, §4, §5, §6

The test system of assay [5] is U-937-vcr (vincristin-resistant lymphoma). In words: FMCA, U-937-vcr. The settings on record: U-937-vcr vincristin-resistant lymphoma cells.
From the text: as §1, §2, §3, §4, §5, §6

Assay [6] has as its system A2780/Cis (cisplatin-resistant ovarian cancer). In words: FMCA, A2780/Cis. The note with it: A2780cis, A2780/Cis cisplatin-resistant ovarian cancer cells.
From the text: as §1, §2, §3, §4, §5, §6

Assay [7] deals with MDA-MB-231 (breast cancer). In words: FMCA, MDA-MB-231. The note with it: Homo sapiens, MDA-MB-231 breast cancer cells.
From the text: as §1, §2, §3, §4, §5, §7

The subject of assay [8] is CCRF-CEM cancer cells - leukemia. In words: Fluorometric Microculture Cytotoxicity Assay (FMCA), CCRF-CEM. The note with it: Homo sapiens, 72 h incubation.
In assay [9] the test system is PANC-1 (pancreatic cancer). In words: FMCA, PANC-1. The settings on record: Homo sapiens, PANC-1 pancreatic cancer cells.
From the text: as §1, §2, §3, §4, §5, §7

Assay [10] concerns MIA PaCa-2 (pancreatic cancer). In words: FMCA, MIA PaCa-2. The settings on record: Homo sapiens, MIA PaCa-2 pancreatic cancer cells.
From the text: as §1, §2, §3, §4, §5, §7

The test system of assay [11] is BxPC-3 (pancreatic cancer). Nature of the assay: FMCA, BxPC-3. The note with it: Homo sapiens, BxPC-3 pancreatic cancer cells.
From the text: as §1, §2, §3, §4, §5, §7

The test system of another assay is A2780 (ovarian cancer). In words: FMCA, A2780. The settings on record: Homo sapiens, A2780 ovarian cancer cells.
From the text: as §1, §2, §3, §4, §5, §6

With `COc1ccc2[nH]cc(CCNc3nccc(Nc4ccc5c(c4)cc(C)n5C)n3)c2c1` [Example 13, N^4-(1,2-dimethyl-1H-indol-5-yl)-N^2-[2-(5-methoxy-1H-indol-3-yl)ethyl]pyrimidine-2,4-diamine], the EC50 in [1] was 330 nM; in the assay on PC-3 (prostate cancer) it was 380 nM; in [2] it was 38 nM; with U-937 (lymphoma) it was 30 nM; with RPMI 8226 (myeloma) it was 120 nM; in the assay on HL-60 (leukemia) it was 20 nM. Besides, the EC50 in [3] came out at 180 nM; in assay [4], 120 nM; in assay [5], 29 nM; in [6] it was 73 nM; in assay [7], 380 nM; in assay [8], 19 nM. In addition, the EC50 in [9] was determined as 860 nM; in [10] it was 54 nM; in [11] it was 130 nM; in the assay with A2780 (ovarian cancer) it was 64 nM.
`COc1ccc2[nH]cc(CCNc3nccc(Nc4ccc5[nH]c(C)cc5c4)n3)c2c1` [Example 4, N^2-[2-(5-methoxy-1H-indol-3-yl)ethyl]-N^4-(2-methyl-1H-indol-5-yl)pyrimidine-2,4-diamine]: the EC50 in assay [1] was determined as 140 nM; with PC-3 (prostate cancer), 240 nM; in assay [2], 6.6 nM; in the assay on U-937 (lymphoma), 13 nM; in the assay on RPMI 8226 (myeloma), 45 nM; with HL-60 (leukemia), 9.1 nM. Also, the EC50 in assay [3] came out at 110 nM; in [4] it was 23 nM; in assay [5], 28 nM; in [6] it was 25 nM; in [7] it was 100 nM; in assay [8], 28 nM. In addition, the EC50 in assay [9] stood at 1600 nM; in [10] it was 14 nM; in [11], 37 nM; with A2780 (ovarian cancer), 33 nM.

These data come from patent US9006241B2, “Pyrimidine derivatives” (Noviga Research AB, priority 2011, dated 2015).
